These results are taken from patent US20070213359A1 (ACADIA Pharmaceuticals Inc., priority 2005, published 2007).

Chain of Ghrelin receptor (Q92847 whole entry): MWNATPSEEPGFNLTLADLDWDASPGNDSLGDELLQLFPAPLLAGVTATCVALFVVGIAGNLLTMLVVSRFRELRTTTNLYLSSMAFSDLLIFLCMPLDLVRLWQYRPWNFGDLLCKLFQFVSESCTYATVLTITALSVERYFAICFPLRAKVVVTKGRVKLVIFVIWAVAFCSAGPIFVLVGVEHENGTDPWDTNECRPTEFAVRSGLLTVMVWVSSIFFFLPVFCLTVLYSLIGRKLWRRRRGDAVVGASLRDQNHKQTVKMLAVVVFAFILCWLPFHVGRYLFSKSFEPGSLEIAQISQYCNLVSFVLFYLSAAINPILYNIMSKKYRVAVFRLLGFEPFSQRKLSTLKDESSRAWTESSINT
T1 sequence (Q92847 whole entry): as above

One test has as its target Ghrelin receptor (Homo sapiens, UniProt Q92847). Kind of test: Receptor Selection and Amplification Technology (R-SAT) assay. The class given is cell-based. Also on record: expressed in transfected cells; host or cells: NIH3T3. To be noted: […]; '—' not defined (nd used separately); read-out: RSAT pIC50 (converted).
On to `COc1cccc2c(C(=O)c3ccccc3)cn(CCCN3CCCN(Cc4ccccc4Cl)CC3)c12`, for which the IC50 is 0.398 nM.

As for `COc1cccc2c(C(=O)Cc3ccccc3)cn(CCCN3CCCN(Cc4ccc(F)cc4)CC3)c12`, the IC50 is 0.398 nM.

Consider `COc1cccc2c(C(=O)Cc3ccccc3)cn(CCCN3CCCN(Cc4ccccc4Cl)CC3)c12`, for which the IC50 is 0.501 nM.

Consider `COc1cccc2c(C(=O)c3ccccc3)cn(CCCN3C4CCC3CC(CC(=O)c3ccccc3)C4)c12` (stereo not drawn), for which the IC50 is 5.01 nM.

For the compound `COc1cccc2c(C(=O)c3ccccc3)cn(CCCN3CCC(Oc4ccccc4Cl)CC3)c12`, the IC50 was 6.31 nM.

For the compound `COc1cccc2c(C(=O)c3ccccc3)cn(CCCN3CCC(Oc4ccc(Cl)cc4)CC3)c12`, the IC50 was 6.31 nM.

As for `COc1cccc2c(C(=O)c3ccccc3)cn(CCCN3CCN(Oc4cccc(Cl)c4)CC3)c12`, the IC50 is 6.31 nM.

As to `COc1cccc2c(C(=O)c3ccccc3)cn(CCCN3C4CCC3CC(Oc3ccc(Cl)cc3)C4)c12` (stereo not drawn), the IC50 is 7.94 nM.

As to `CCCCC1CCN(CCCn2cc(C(=O)NCC(C)C)c3cccc(OC)c32)CC1`, the IC50 was 7.94 nM.

Regarding `COc1cccc2c(C(=O)Cc3ccccc3)cn(CCCN3CCN(CCOc4ccc(Cl)cc4)CC3)c12`, the IC50 is 7.94 nM.

For `COc1cccc2c(C(C)=O)cn(CCCN3C4CC[C@H]3C[C@@H](Oc3ccc(Cl)cc3)C4)c12`, the IC50 is 10 nM.

As for `COc1ccccc1C1CCN(CCCn2cc(C(=O)c3ccccc3)c3cccc(OC)c32)CC1`, the IC50 is 12.6 nM.

Still in this test, the particulars now being: negative logarithm of ligand concentration causing 50% inhibition of constitutive receptor response; transfected NIH3T3 cells; '—' not defined (nd used separately); read-out: RSAT pIC50 (converted).
For `COc1cccc2c(C(C)=O)cn(CCCN3CCCN(Cc4ccccc4Cl)CC3)c12`, the IC50 is 0.251 nM.

As to `CCc1cccc2c(C(C)=O)cn(CCCN3C4CCC3CC(CCc3ccccc3)C4)c12` (stereo not drawn), the IC50 was 3.98 nM.

As to `CC(=O)c1cn(CCCN2CCC(Oc3ccc(Cl)cc3)CC2)c2c(Br)cccc12`, the IC50 is 3.98 nM.

Turning to `COc1cccc2c(C(=O)NCc3cccc(Cl)c3)cn(CCCN3C4CCC3CC(Oc3ccccc3Cl)C4)c12` (stereo not drawn), the IC50 was 3.98 nM.

Regarding `CC(=O)c1cn(CCCN2C3CCC2CC(Oc2ccc(Cl)cc2)C3)c2c(C)cccc12` (stereo not drawn), the IC50 was 5.01 nM.

As for `CC(=O)c1cn(CCCN2CCC(Oc3ccc(F)cc3)CC2)c2c(C)cccc12`, the IC50 is 5.01 nM.

Staying with this test, now noted: percent inhibition at saturating ligand, normalized to reference ligand Substance P analog = 100%.
As to `COc1cccc2c(C(C)=O)cn(CCCN3CCCN(Cc4ccccc4Cl)CC3)c12`, the “RSAT Eff(%)” value turned out to be 128%.

As for `COc1cccc2c(C(=O)NCc3cccc(Cl)c3)cn(CCCN3C4CCC3CC(Oc3ccccc3Cl)C4)c12` (stereo not drawn), the “RSAT Eff(%)” value was 99%.

Still in this test, the particulars now being: percent inhibition at saturating ligand, normalized to reference ligand Substance P analog = 100%; read-out: RSAT Eff(%).
For the compound `CC(=O)c1cn(CCCN2CCC(Oc3ccc(Cl)cc3)CC2)c2c(Br)cccc12`, the Emax turned out to be 105%.

With `CC(=O)c1cn(CCCN2C3CCC2CC(Oc2ccc(Cl)cc2)C3)c2c(C)cccc12` (stereo not drawn), the Emax is 99%.

On to `CC(=O)c1cn(CCCN2CCC(Oc3ccc(F)cc3)CC2)c2c(C)cccc12`, for which the Emax is 72%.

Staying with this test, now noted: read-out: RSAT Eff(%).
On to `COc1cccc2c(C(=O)c3ccccc3)cn(CCCN3CCCN(Cc4ccccc4Cl)CC3)c12`, for which the Emax was found to be 98%.

`COc1cccc2c(C(=O)Cc3ccccc3)cn(CCCN3CCCN(Cc4ccc(F)cc4)CC3)c12`: the Emax worked out at 87%.

Turning to `COc1cccc2c(C(=O)Cc3ccccc3)cn(CCCN3CCCN(Cc4ccccc4Cl)CC3)c12`, the Emax came to 92%.

As for `CCc1cccc2c(C(C)=O)cn(CCCN3C4CCC3CC(CCc3ccccc3)C4)c12` (stereo not drawn), the Emax was found to be 103%.

Regarding `COc1cccc2c(C(=O)c3ccccc3)cn(CCCN3C4CCC3CC(CC(=O)c3ccccc3)C4)c12` (stereo not drawn), the Emax amounted to 101%.

Take `COc1cccc2c(C(=O)c3ccccc3)cn(CCCN3CCC(Oc4ccccc4Cl)CC3)c12`: the Emax worked out at 79%.

Regarding `COc1cccc2c(C(=O)c3ccccc3)cn(CCCN3CCC(Oc4ccc(Cl)cc4)CC3)c12`, the Emax worked out at 93%.

With `COc1cccc2c(C(=O)c3ccccc3)cn(CCCN3CCN(Oc4cccc(Cl)c4)CC3)c12`, the Emax was 79%.

With `COc1cccc2c(C(=O)c3ccccc3)cn(CCCN3C4CCC3CC(Oc3ccc(Cl)cc3)C4)c12` (stereo not drawn), the Emax worked out at 91%.

Take `CCCCC1CCN(CCCn2cc(C(=O)NCC(C)C)c3cccc(OC)c32)CC1`: the Emax was 93%.

As for `COc1cccc2c(C(=O)Cc3ccccc3)cn(CCCN3CCN(CCOc4ccc(Cl)cc4)CC3)c12`, the Emax worked out at 82%.

With `COc1cccc2c(C(C)=O)cn(CCCN3C4CC[C@H]3C[C@@H](Oc3ccc(Cl)cc3)C4)c12`, the Emax came out at 114%.

As to `COc1ccccc1C1CCN(CCCn2cc(C(=O)c3ccccc3)c3cccc(OC)c32)CC1`, the Emax is 88%.

The next test concerns the target T1, GHSR1a receptor (Homo sapiens, UniProt Q92847).
T1 construct: expressed in transfected cells; host or cells: HEK293 (membranes)
The experiment in a line: 125I-Ghrelin binding assay. The settings on record: displacement of 125I-ghrelin (0.053 nM), membranes of HEK293 cells transfected with GHSR1a; Cheng-Prussoff; '—' not defined; read-out: Binding pKi (converted). Here is the method:
Plasmid DNA containing the GHSR1a receptor (12.5 ug/dish) in 0.675 ml DMEM was transfected into the cells by mixing with 180 ul PolyFect, 15 min later mixing in 2.25 ml 10% CS/DMEM, and transferring the mixture into the dish. At 16-18 h post transfection, medium was replaced with 25 ml fresh 10% FCS/1% PSG/DMEM to each dish for another 18-20 h. At approximately 48 hours post-transfection, cells were harvested in ice-cold membrane buffer (20 mM HEPES, 6 mM MgCl2, 1 mM EDTA, pH to 7.2) using a cell scraper, and pelleted by centrifugation.
Pelleted cells were added to a nitrogen cavitation chamber and 900 bar of pressure applied for 30 min. The pressure was slowly released the cavitated cells collected in 50 ml falcon tubes. The tubes were centrifuged at 1000 rpm, 4° C. for 10 min, and the supernatant collected. This centrifugation and collection was repeated two more times until the supernatant was free of precipitate (membranes are still in suspension). The supernatant was poured into a 50 ml centrifuge tube and centrifuged at 10.000 rpm, 4° C. for 20 min. The supernatant was discarded and the pellet re-suspended in 750 μl membrane binding buffer using a chilled 1 ml syringe with 25G5/8 needle to re-suspend membranes. The protein concentration was determined using the BioRad Protein Assay Dye Reagent according to the manufacturers instructions. The protein concentration was adjusted to 5 mg/ml and aliquots snap-frozed and stored at −80 C until use.
Membranes were thawed rapidly; diluted with binding buffer (25 mM Hepes+5 mM MgCl2, 1 mM CaCl2, 2.5 mM EDTA and 0.2% BSA) to a protein concentration of 0.8 ug/30 ul and placed on ice. 96-well plates (U-bottom wells) were prepared with serial dilutions (8 doses, 40 ul/w) of the test compounds. Membranes (30 uL/well) were then added, and incubated with test ligands for 30 min at room temperature with shaking. […] Binding was terminated by filtration through GF/B filters (presoaked with 0.1% polyethylenimine) with a Brandel 96-well harvester. The filters were washed with ice-cold binding buffer (150 ml/plate) and allowed to air-dry for 30 min. 50 ul MicroScient-20 cocktail was added to each dried well, the plates were sealed, and counted for 2 min/well using a TopCount scintillation counter (Packard).
For orientation: In a radioligand displacement assay an active substance lowers the binding of a labelled ligand.
Consider `COc1cccc2c(C(C)=O)cn(CCCN3CCCN(Cc4ccccc4Cl)CC3)c12`, for which the Ki was 10 nM.

As to `COc1cccc2c(C(=O)c3ccccc3)cn(CCCN3CCCN(Cc4ccccc4Cl)CC3)c12`, the Ki was 3.98 nM.

In the case of `COc1cccc2c(C(=O)Cc3ccccc3)cn(CCCN3CCCN(Cc4ccc(F)cc4)CC3)c12`, the Ki was 7.94 nM.

In the case of `COc1cccc2c(C(=O)Cc3ccccc3)cn(CCCN3CCCN(Cc4ccccc4Cl)CC3)c12`, the Ki is 6.31 nM.

Consider `CCc1cccc2c(C(C)=O)cn(CCCN3C4CCC3CC(CCc3ccccc3)C4)c12` (stereo not drawn), for which the Ki is 126 nM.

Consider `CC(=O)c1cn(CCCN2CCC(Oc3ccc(Cl)cc3)CC2)c2c(Br)cccc12`, for which the Ki was 100 nM.

For the compound `COc1cccc2c(C(=O)NCc3cccc(Cl)c3)cn(CCCN3C4CCC3CC(Oc3ccccc3Cl)C4)c12` (stereo not drawn), the Ki was 20 nM.

Take `CC(=O)c1cn(CCCN2C3CCC2CC(Oc2ccc(Cl)cc2)C3)c2c(C)cccc12` (stereo not drawn): the Ki is 126 nM.

As for `CC(=O)c1cn(CCCN2CCC(Oc3ccc(F)cc3)CC2)c2c(C)cccc12`, the Ki is 200 nM.

Take `COc1cccc2c(C(=O)c3ccccc3)cn(CCCN3C4CCC3CC(CC(=O)c3ccccc3)C4)c12` (stereo not drawn): the Ki was 100 nM.

Take `COc1cccc2c(C(=O)c3ccccc3)cn(CCCN3CCC(Oc4ccccc4Cl)CC3)c12`: the Ki is 158 nM.

For `COc1cccc2c(C(=O)c3ccccc3)cn(CCCN3CCC(Oc4ccc(Cl)cc4)CC3)c12`, the Ki was 100 nM.

For the compound `COc1cccc2c(C(=O)c3ccccc3)cn(CCCN3CCN(Oc4cccc(Cl)c4)CC3)c12`, the Ki was 7.94 nM.

As to `COc1cccc2c(C(=O)c3ccccc3)cn(CCCN3C4CCC3CC(Oc3ccc(Cl)cc3)C4)c12` (stereo not drawn), the Ki was 100 nM.

Turning to `CCCCC1CCN(CCCn2cc(C(=O)NCC(C)C)c3cccc(OC)c32)CC1`, the Ki is 200 nM.

On to `COc1cccc2c(C(=O)Cc3ccccc3)cn(CCCN3CCN(CCOc4ccc(Cl)cc4)CC3)c12`, for which the Ki was 3160 nM.

As for `COc1cccc2c(C(C)=O)cn(CCCN3C4CC[C@H]3C[C@@H](Oc3ccc(Cl)cc3)C4)c12`, the Ki was 200 nM.

For `COc1ccccc1C1CCN(CCCn2cc(C(=O)c3ccccc3)c3cccc(OC)c32)CC1`, the Ki is 158 nM.
